Patent publication US6664285B1, “Use of cell membrane penetrating indigoid bisindole derivatives” (priority 1999, dated 2003)
Where two headings read alike, the source gives them in different places.

What was measured:
[1] = system: large-cell lung carcinoma xenograft line LXFL 529 L; test: Tumor cell growth inhibition, sulforhodamine B (SRB) assay; assay type: cell-based, human; settings: LXFL529L; three days incubation, serum containing medium
[2] = system: mammary carcinoma line MCF-7; test: as above; assay type: cell-based, human; settings: MCF7; three days incubation, serum containing medium
[3] = Solubility; assay type: physicochemical
[4] = system: LXFL 529L cells; test: Cellular uptake into LXFL 529L cells; settings: LXFL 529L cells
Description: The compounds of Examples 1, 6 and 8 and Comparative Examples 1 and 2 were investigated with respect to their ability to penetrate LXFL 529L cells having the passage numbers P23 to P39. The amounts of the substances taken up by the cells are given depending on the concentration of the substance within the incubation medium. The time of incubation was 2 hours in all of the experiments. Furthermore, the distribution of the substance which was taken up by the cells in the cytosol and the cellular organelles (particular) was estimated and is given in the intermediate column of Table 2. Tumor cell growth inhibition was determined by the sulfo-rhodamine B assay (SRB assay) according to Skehan et al., J. Natl. Cancer Institute 82, pages 1107-1112 (1990). Incubation was conducted for three days in serum containing medium. Tumor cell lines tested were a large-cell lung carcinoma xenograft line LXFL 529 L and the mammary carcinoma line MCF-7.

[5] = system: various tumor cell lines (all); test: Colony-forming assay, all tumor xenografts; assay type: cell-based, human
Source text: The compounds according to the inventive Examples show good to excellent anti-tumor activity against various types of tumor cell lines.

[6] = system: MCF7X (mammary); test: Colony-forming assay; assay type: cell-based, human; settings: for IC50: read-out: IC50 colony formation
[7] = system: LXFA526 (lung adenocarcinoma); test: Colony-forming assay; assay type: cell-based, human; settings: for IC50: read-out: IC50 colony formation
[8] = system: PAXF546 (pancreatic); test: Colony-forming assay; assay type: cell-based, human; settings: for IC50: read-out: IC50 colony formation
[9] = system: LXFS650 (lung small-cell); test: Colony-forming assay; assay type: cell-based, human
[10] = system: HT29X (colon); test: Colony-forming assay; assay type: cell-based, human; settings: for IC50: read-out: IC50 colony formation
[11] = system: MEXF514 (melanoma); test: Colony-forming assay; assay type: cell-based, human; settings: for IC50: read-out: IC50 colony formation
[12] = system: human tumor xenograft LXFL 529; test: In vivo testing in nude mice bearing subcutaneous tumor xenograft; settings: for activity rating: days 1-5
Description: Compound of Examples 1, 4, 6, 8, 9 and 10 were subjected to in vivo testing in nude mice bearing subcutaneously growing human tumor xenograft LXFL 529. The indigoid bisindole derivatives were applied intraperitoneally to the animals in doses and according to the schedule as described in Table 4.
The experiments were run for 21 or 28 days. Anti-tumor activity was evaluated comparing the median tumor volume relative to control, expressed as %T/C, wherein T is the test group and C the vehicle control group. In Table 4, anti-tumor activity is given according to an activity rate scale.

[13] = system: 1220 (renal); test: Colony-forming assay; assay type: cell-based, human; settings: renal 1220
[14] = system: PAXF736 (pancreatic); test: Colony-forming assay; assay type: cell-based, human; settings: for IC50: read-out: IC50 colony formation
[15] = system: OVXF1353 (ovarian); test: Colony-forming assay; assay type: cell-based, human
Description: The anti-tumor activity of the compounds was evaluated via a colony-forming-assay as described e.g. by D. P. Berger et al. in Annals of Oncology 1, pages 333-341 (1 990), “The clonongenic assay with human tumor xenografts, evaluation, predictive values and application for drug screening”.
The experiments were conducted using various tumor cell lines, in particular mammary carcinoma (MAXF), lung adenocarcinoma (LXFA), large-cell lung carcinoma (LXFL), small-cell lung carcinoma (LXFS), colon carcinoma (CXF), melanoma (MEXF), pancreatic carcinoma (PAXF), renal carcinoma (RXF), ovarian carcinoma (OVXF) and bladder carcinoma (BXF).

[16] = read-out: IC50 colony formation
[17] = type printed pancreatic, xenograft printed HT29X

Row | Compound | IC50 [1] [µM] | IC50 [2] [µM] | solubility in physiological solutions (in words) [3] | uptake by the tumor cells (in words) [4] | IC70 colony formation [6] [µM] | IC50 [6] [µM] | IC70 colony formation [7] [µM] | IC50 [7] [µM] | IC70 colony formation [8] [µM] | IC50 [8] [µM] | IC70 colony formation ([10]; colon HT29X) [µM] | IC50 ([10]; colon HT29X) [µM] | IC70 colony formation [11] [µM] | IC50 [11] [µM] | IC70 colony formation [14] [µM] | IC50 [14] [µM] | other results
1 | O=C1Nc2ccc(S(=O)(=O)O)cc2C1=C1Nc2ccccc2C1=O [Comparative Example 1, Indirubin-5-sulfonic acid, reference compound] | > 100 | > 100 | well soluble in physiological solutions | essentially not taken up by the cells |  |  |  |  |  |  |  |  |  |  |  |  | IC70 colony formation ([5]; tumor xenograft type (all)): >30.0 µM; IC50 ([5]; tumor xenograft type (all), read-out: IC50 colony formation): > 30 µM; anti-tumor activity (in words) ([5]; various types of tumor cell lines): does not exhibit an anti-tumor activity against any of the tumor lines
2 | O=C1Nc2ccc(S(=O)(=O)O)cc2C1=C1Nc2ccccc2C1=NO [Comparative Example 2, Indirubin-3′-oxime-5-sulfonic acid, reference compound] | > 100 | > 100 | well soluble in physiological solutions | essentially not taken up by the cells |  |  |  |  |  |  |  |  |  |  |  |  | 
3 | O=C1Nc2ccc(I)cc2/C1=C1/Nc2ccccc2C1=O [Example 2, 5-Iodoindirubin] |  |  |  |  | 2.5 | < 1 | 23 | 8 | >30 | 18 | >30 | 6.3 |  |  |  |  | IC70 colony formation [9]: 24.5 µM; IC50 [9, 16]: 13.7 µM
4 | O=C1Nc2ccc(Br)cc2/C1=C1/Nc2ccccc2C1=O [Example 3, 5-Bromoindirubin] |  |  |  |  | <1.0 | < 1 | 14.4 | 2.3 |  |  | 17.3 | < 1 | 8.0 | 3.4 |  |  | IC70 colony formation [10, 17]: >30 µM; IC50 [10, 17]: 13.2 µM
5 | O=C1Nc2ccc(Cl)cc2/C1=C1/Nc2ccccc2C1=O [Example 4, 5-Chloroindirubin] |  |  |  |  | <1.0 | < 1 |  |  | >30 | 4.6 | 17.3 | < 1 | 26.0 | 17.1 | 8.0 | 3.2 | activity rating ([12]; 100 mg/kg/day i.p.): ++ (tumor stasis T/C ≦ 25%); activity rating ([12]; 300 mg/kg/day i.p.): ++ (tumor stasis T/C ≦ 25%); tumor growth (relative tumor volume) compared to the vehicle control (in words) ([12]; LXFL 529/17, i.p., nude mice, FIG. 1): significantly inhibited the tumor growth; IC70 colony formation [13]: 24.7 µM; IC50 [13, 16]: 11.2 µM
6 | O=C1Nc2ccc(F)cc2C1=C1Nc2ccccc2C1=O [Example 5, 5-Fluoroindirubin] |  |  |  |  | <1.0 | < 1 |  |  |  |  |  |  |  |  | 1.1 | < 1 | IC70 colony formation [15]: 6.1 µM; IC50 [15, 16]: < 1 µM
